Results on four compounds are retold here after patent US4863933A, “3-hydroxypyridines” (Smith Kline & French Laboratories Limited, priority 1986, dated 1989).

Assay [1] addresses T1, histamine H1-receptor (guinea pig ileum) (Cavia porcellus, UniProt P31389).
T1 construct: an isolated portion of the guinea pig ileum is secured under tension; from tissue; host or cells: isolated guinea pig ileum
The assay is described as follows: in vitro guinea pig ileum test (histamine H1-antagonist activity). In kind it is cell-based. Conditions: isolated guinea pig ileum, magnesium free Tyrode solution, 30° C., 8 min contact, histamine as agonist; read-out: pA2 ileum (converted). The protocol: In this test an isolated portion of the guinea pig ileum is secured under tension (500 mg) between an anchorage and a transducer in a 10 ml tissue bath and immersed in magnesium free Tyrode solution with constant aeration at a temperature of 30° C. The output from the transducer is amplified. The amplified output is in turn fed to a flat bed recorder. Measured amounts of histamine are added to the tissue bath so that the histamine concentration increases step-wise until the force of the contraction reaches a maximum. The tissue bath is washed out and filled with fresh magnesium free Tyrode solution containing compound under test. The solution is left in contact with the tissue for 8 min. and measured amounts of histamine are added again until a maximum contraction is recorded. The assay is repeated with increasing concentrations of test compound and the dose of histamine giving 50% of maximum contraction is noted. A dose ratio (DR) was calculated by comparing the concentrations of histamine required to produce 50% maximum response in the absence and in the presence of the antagonist. A plot of Log DR-1 against Log D (the concentration of compound under test) is made and the point of intersection with the Log (DR-1) ordinate is taken as the measure of the activity (pA2 value).

In the next assay the test system is histamine H1-receptor. The assay is described as follows: in vivo inhibition of histamine induced bronchoconstriction in anaesthetised guinea pigs. Particulars: intravenous antagonist dose giving DR-1 = 10, histamine dose-response 5 minutes after antagonist. The protocol:
Guinea pigs of either sex are anaesthetised by intraperitoneal injection of sodium pentobarbitone, 90 mg/kg. The trachea is cannulated. The animal is respired artificially with a fixed volume of air just adequate to inflate the lungs. The pressure needed to inflate the lungs is monitored from the respiratory system using a pressure transducer. Intravenous injection of histamine causes dose-dependent increases in the pressure to inflate the lungs reflecting the bronchoconstrictor action of histamine. Responses to histamine can be antagonised using histamine H1 -receptor antagonists.
Dose-response curves to histamine are established at 20, 40, 80, 160 and 320 nmols/kg. Antagonists are then administered by intravenous injection and 5 minutes later a new histamine dose-response curve is established increasing the doses of histamine as necessary. The effect of the antagonist can be quantified by the displacement, to the right, of the histamine dose-response curve, expressed as a dose-ratio. A series of doses of antagonists may be given to each animal allowing calculation of dose-ratios for each dose of antagonist.

Molecules are shown by their SMILES.

T1 sequence (P31389 whole entry): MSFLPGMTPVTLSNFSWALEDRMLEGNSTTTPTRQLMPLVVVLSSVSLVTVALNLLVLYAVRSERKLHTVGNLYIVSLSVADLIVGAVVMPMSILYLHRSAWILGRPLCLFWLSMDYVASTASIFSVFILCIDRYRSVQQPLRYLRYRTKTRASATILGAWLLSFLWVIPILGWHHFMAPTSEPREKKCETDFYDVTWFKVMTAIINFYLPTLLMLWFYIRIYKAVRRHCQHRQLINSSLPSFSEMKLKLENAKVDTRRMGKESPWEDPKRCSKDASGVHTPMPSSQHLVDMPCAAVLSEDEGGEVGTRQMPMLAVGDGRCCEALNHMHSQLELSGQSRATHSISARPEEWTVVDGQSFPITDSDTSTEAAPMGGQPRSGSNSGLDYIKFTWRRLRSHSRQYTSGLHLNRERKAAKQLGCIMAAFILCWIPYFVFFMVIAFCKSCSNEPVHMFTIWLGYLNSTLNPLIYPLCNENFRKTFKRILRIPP

With `Cc1cc(Br)cnc1CCCCNc1ncc(Cc2cccnc2)cc1O` [1(h), 2-[4-(5-Bromo-3-methylpyrid-2-yl)butylamino]-3-hydroxy-5-(pyrid-3-ylmethyl)pyridine], the Kb in assay [1] is 1.95 nM. In the assay on histamine H1-receptor, the “Guinea Pig bronchoconstriction DR-1 = 10” value amounted to 0.016 μm/kg.

`Cc1cc(Br)cnc1CCCCNc1ncc(Cc2cccnc2)cc1OP(=O)(O)O` [1(i), 2-[4-(5-Bromo-3-methylpyrid-2-yl)butylamino]-5-(pyrid-3-ylmethyl)pyrid-3-yloxyphosphate]: in assay [1], the Kb is 8.13 nM. In the assay with histamine H1-receptor, the “Guinea Pig bronchoconstriction DR-1 = 10” value is reported as 0.033 μm/kg.

As to `Oc1cc(Cc2cccnc2)cnc1NCCCC1CCCc2cccnc21` (stereo not shown) [2(e), 2-[3-(5,6,7,8-Tetrahydroquinol-8-yl)propylamino]-3-hydroxy-5-(pyrid-3-ylmethyl)pyridine], in assay [1], the Kb was 9.55 nM. Also, the “Guinea Pig bronchoconstriction DR-1 = 10” value with histamine H1-receptor is 0.038 μm/kg.

Consider `Cc1cc(Br)cnc1CCCNc1ncc(Cc2cccnc2)cc1O` [3(h), 2-[3-(5-Bromo-3-methylpyrid-2-yl)-propylamino]-3-hydroxy-5-(pyrid-3-ylmethyl)pyridine], for which the Kb in assay [1] was 1.51 nM.
